# Laboratory results published in publication PMC8149832, “A comparative study of synthetic winged peptides for absolute protein quantification” (Scientific Reports, 2021).
# Ends that are not written are not given here.
# Biological target: T1, Trypsin (Sus scrofa, UniProt P00761)
# T1 construct: purchased Promega V5280
# Test: Trypsin digestion efficiency / kinetics of signature peptide formation
# Type: biochemical
# Details: trypsin 1:20 w/w, 37 °C, AmBic/SDC buffer with 5% ACN reconstitution; 0.5-24 h; SRM peak area; Figs. 4, S3, S4
# Procedure: HSA concentration in the pooled serum sample diluted twofold with ultrapure water was determined using BCG albumin assay kit on the 96-well plate format (cat. #MAK124-1KT, Sigma-Aldrich). The seven-point calibration series was prepared using HSA standard (5 to 50 mg/mL) in ultrapure water. The absorption spectrophotometry was measured at 620 nm wavelength. The pooled serum sample (10 µL), diluted 2000-fold using 50 mM AmBic with 5 mg/mL SDC (AmBic/SDC buffer) to HSA concentration of approx. 500 nM and transferred into a clean microcentrifuge tube. After adding SIL protein or peptide internal standard (10 µL), the sample was reduced (adding 1 µL of 200 mM DTT stock solution, 95 °C, 10 min), cooled down to ambient temperature, and cysteine residues were alkylated (adding 1 µL of 400 mM IAAstock solution, ambient temperature, 30 min in the dark). Trypsin was added to the sample in a 1:20 ratio (w/w enzyme to total protein content), and samples were incubated (37 °C, 16 h) in microcentrifuge tubes sealed with a paraffin film. The enzymatic proteolysis was quenched at different time points (0.5, 2, 4, 8, 16, and 24 h; n = 3) to optimize the incubation time. The proteolysis was quenched by adding 200 µL of 2% FA in water (pH < 3), and tryptic peptides were desalted using a mixed-mode SPE cartridge in a 96-well plate format (Oasis PRIME HLB, Waters, Milford, MA). Samples were loaded onto the SPE cartridge, washed (300 µL water with 2% FA, pH < 3), eluted (50% ACN; 2% FA in water, pH < 3), and the extract was dried in a vacuum concentrator centrifuge (Savant SPD121 P SpeedVac, Thermo Fisher). Samples were dissolved (10 µL) in 5% ACN with 0.1% FA in water before UHPLC-SRM analysis. […]
# The enzymatic digestion efficiency severely affects the quantitative performance of a protein assay[10],[11]. […] Overnight trypsin digestion is routinely used for reproducible proteolytic yields as the peptide's stability and formation efficiency may vary[11]. Maximal trypsinization yields of some signature peptides are reached within two hours[10],[16], while other peptides require longer digestion time[30]. We optimized the trypsin digestion duration to ensure reproducible signature peptide yields needed for a quantitative protein assay. We studied the signature peptide formation from light HSA protein and each version of SIL-Ex peptides after 0.5, 2, 4, 8, 16, and 24 h of incubation. SRM peak areas of light and heavy signature peptides and determined HSA protein concentrations (nM) were plotted against incubation time (h), comparing the efficiency of light HSA proteolysis with SIL-Ex peptides (Figs. 4, S3 and S4). The formation of HSA signature peptides LVNE, SLHT, DDNP, YLYE, and QTAL was compared for SIL-TCT, SIL-ExC5, SIL-ExC3N3, and SIL-ExC5N5 peptides (Fig. 4). Besides, the formation of HSA signature peptides DLGE, LCTV, LVTD, TYET, and FQNA was compared for SIL-TCT and SIL-ExC5 peptides only (Fig. S4).
# T1 sequence (P00761 9-231): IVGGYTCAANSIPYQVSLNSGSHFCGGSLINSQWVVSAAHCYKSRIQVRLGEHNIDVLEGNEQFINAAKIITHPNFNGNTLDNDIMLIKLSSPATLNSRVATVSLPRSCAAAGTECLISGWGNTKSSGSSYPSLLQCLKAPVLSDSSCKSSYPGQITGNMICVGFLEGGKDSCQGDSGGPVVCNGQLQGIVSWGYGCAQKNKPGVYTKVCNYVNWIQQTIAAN
row,Substance,"formation of signature peptide by trypsin digestion, rate or yield (in words)"
1,DDNPNLPRLVRPE,rapidly formed signature peptide DDNP
2,LQHKDDNPNLPRLVR [SIL signature peptide extended with three amino acids at both C- and N-termini],mimicking the slow digestion kinetics of light HSA protein
3,DDNPNLPRSAnYG [SIL-TCT DDNPNLPR],rapidly formed signature peptide DDNP
4,"TFLKKYLYEIARRHPYF (also: stable isotope label, residues not given here) [SIL-ExC5N5 YLYEIAR, SIL signature peptide extended with five amino acids at both C- and N-termini]",lower
5,FLQHKDDNPNLPRLVRPE [SIL signature peptide extended with five amino acids at both C- and N-termini],mimicking the slow digestion kinetics of light HSA protein
6,RQIKKQTALVELVKHKPKA [SIL signature peptide extended with five amino acids at both C- and N-termini],lower

# Same assay, conditions: trypsin 1:20 w/w, 37 °C, AmBic/SDC buffer; quenched at 0.5, 2, 4, 8, 16, 24 h, n = 3; SRM peak area; Fig. S4
row,Substance,time to plateau of signature peptide formed from C-terminal extended SIL peptide (in words)
1,DLGEENFKSAnYG [SIL-TCT DLGEENFK],within the initial two hours
2,LC*TVATLRSAnYG [SIL-TCT LCTVATLR],within the initial two hours
3,LC*TVATLRETYGE,within the initial two hours
4,DLGEENFKALVLI,within the initial two hours
